As for `CS(=O)(=O)CCNc1ncc2cc(Oc3ccc(F)cc3F)ccc2n1` [Example 5], the melting point lay in the range of 160.1 to 161.5 °C.

On to `CC(C)Nc1ncc2cc(Oc3ccc(F)cc3F)ccc2n1` [Example 2], for which the melting point lay within 160 to 162.6 °C.

`OC1CCC(Nc2ncc3cc(Oc4ccc(F)cc4F)ccc3n2)CC1` (centres unmarked) [Example 8, 4-[6-(2,4-Difluoro-phenoxy)-quinazolin-2-ylamino]-cyclohexanol] yielded a melting point of 176.2 to 176.8 °C.

For the molecule `OCC(O)CNc1ncc2cc(Oc3ccc(F)cc3F)ccc2n1` (centres unmarked) [Example 4, 3-[6-(2,4-Difluoro-phenoxy)-quinazolin-2-ylamino]-propane-1,2-diol], the melting point was 161.5 to 162.7 °C.

Regarding `OCCC(CCO)Nc1ncc2cc(Oc3ccc(F)cc3F)ccc2n1` [Example 3, 3-[6-(2,4-Difluorophenoxy)-quinazolin-2-ylamino]-pentane-1,5-diol], the melting point was in the range of 112.9 to 113.6 °C.

`CCOc1ccc2nc(NCC[S+](C)[O-])ncc2c1` (centres unmarked) [Example 11, (6-Ethoxy-quinazolin-2-yl)-(2-methanesulfinyl-ethyl)-amine]: the melting point was 152.7 to 154.6 °C.

`CCC(CO)(CO)Nc1ncc2cc(Oc3ccc(F)cc3F)ccc2n1` [Example 1, 2-[6-(2,4-Difluoro-phenoxy)-quinazolin-2-ylamino]-2-ethyl-propane-1,3-diol]: the melting point lay within 110 to 112.9 °C.

In turn, `CS(=O)(=O)N1CCC(Nc2ncc3cc(Oc4ccc(F)cc4F)ccc3n2)CC1` [Example 6] had a melting point of 173.9 to 177.1 °C.

For the origin of these results see patent US7456185B2, “Substituted quinazoline compounds useful as p38 kinase inhibitors” (Roche Palo Alto LLC, priority 2003, dated 2008).
